From US20150150892A1, “METHODS AND PRODUCTS RELATED TO LUNG CANCER” (Massachusetts Institute of Technology, priority 2012, published 2015)

Assays:
[1] = system: KP lung tumors; experiment: CC3 immunohistochemistry in KP lung tumors; format: in vivo, mouse
Protocol: FIG. 4: Bortezomib induces apoptosis in KP lung tumors. (4A and 4B) H&E and CC3 immunohistochemistry staining (×200) in vehicle control- and bortezomib-treated KP (4A) and K (4B) lung tumors. (4C and 4D) quantification of CC3-positive cells in bortezomib-treated KP (4C) and K (4D) lung tumors at indicated time points. “0 hour” represents vehicle control-treated tumors. Error bars are SD (n>10 for each time point).
(§1) FIG. 5: Bortezomib increases survival in KP mice. (5A and 5B) Kaplan-Meier survival curve of vehicle control and bortezomib-treated KP (5A) and K (5B) mice. Arrows indicate weekly 1 mg/kg bortezomib regimen. (5C) quantification of lung tumor volume of control- and bortezomib-treated KP mice. From 10 weeks after Adeno-Cre infection, lungs were imaged by microCT to measure individual tumor volumes (n=4). Data points represent means of fold change and SD relative to 10 weeks (set to 1). Arrows indicate bortezomib injection. D, CC3 staining (×200) in lung tumors receiving 3 doses of control (“C”) and 1 final dose of bortezomib (“B,” left) or 4 doses of bortezomib (right). Tumors were harvested 48 hours after the last treatment (n=4).
FIG. 18: Bay-117082 induces apoptosis in KP lung tumors. (18A), H&E and cleaved caspase 3 (CC3) immunohistochemistry staining (200×) in vehicle control and Bay-117082 treated KP lung tumors (10 mg/kg, 48 hrs). (18B) Quantification of CC3 positive cells. Error bars are s.d. (p<0.05).
Mice were sacrificed by carbon dioxide asphyxiation. Lungs were inflated with 4% formalin (neutral buffered formalin), fixed overnight, and transferred to 70% ethanol. Lung lobes were embedded in paraffin and sectioned at 4 μm and stained with H&E for tumor pathologic study. For staining with anti-CC3 antibodies (#9661; Cell Signaling), lung tumor sections were dewaxed, rehydrated, and subjected to high-temperature antigen retrieval—10 minutes of boiling in a pressure cooker in 0.01 M citrate buffer, pH 6.0. […] The number of positive cells per tumor area was quantified using Bioquant software from >10 tumors in ≧3 mice per group (2).

[2] = system: KrasLSL-G12D/wt mice; experiment: Kaplan-Meier survival of K mice; format: in vivo, mouse; settings: KrasLSL-G12D/wt cohort, weekly 1 mg/kg bortezomib; P=0.36
Protocol: To initiate lung tumors, cohorts of K or KP mice of 129svJae background were infected with 2.5×10^7 plaque-forming units of Adeno-Cre (University of Iowa) by intranasal inhalation, as described previously (2, 28). Mice were given bortezomib (LC Labs) in PBS [0.5% dimethylsulfoxide (DMSO)] at 1 mg/kg body weight i.v., as indicated. Bay-117082 (CalBiochem) was dissolved in DMSO, diluted in PBS as a fine suspension, and injected at 10 mg/kg body weight i.p., as indicated.
Using a cohort of KP mice, we treated tumor-bearing animals 8 weeks after Adeno-Cre infection with bortezomib once a week for 4 weeks (FIG. 10A).

[3] = system: Bortezomib-resistant KP cell lines; settings: upon bortezomib treatment; viability 24 hours, colonies 7 days
Protocol: (12A) Relative cell viability in cell lines treated with increasing doses of Bortezomib for 24 hours. Cells lines were outgrown from Bortezomib resistant orthotopic tumors (resistant 1&2) or sensitive tumors (sensitive) as in FIG. 6C. Error bars are s.d. (n=3). (12B) Colony formation assay in Bortezomib-resistant cells. 104 cells were plated in 6-well plate and treated with indicated drug concentration. Plates were stained 7 days later with crystal violet solution. Drug-containing medium was refreshed every 4 days.
Cells were split into 96-well plates (5,000 cells per well). After 24 hours, cells were treated with bortezomib, and 24 hours later cell viability was measured by the Cell Titer Aqueous Kit (Promega) in triplicates. Vehicle control-treated cell values were set to 1 (100% viability).

[4] = system: CDK inhibitors p21 and p27; settings: cited from earlier work
[5] = system: Kras^G120;p53^fl/fl (high NF-κB) mice; experiment: FIG. 19 study, mice with high NF-κB; format: in vivo, mouse; settings: 1 kg/mg IV bortezomib
Protocol: FIG. 19 is a schetaic diagram showing the experimental conditions and a set of graphs showing the results. Two sets of mice were treated with […] IV bortezomib, Kras^G120;p53^fl/fl (high NF-κB, top panel) or KrasL^St-G12Dwt (low NF-κB, bottom panel). […] The relapsed tumors have high Hmcgs2.
Mice having either high or low levels of NF-κB were treated with […] IV bortezomib and examined for tumor progression, apoptosis and survival. The mice are Kras^G120;p53^fl/fl (high NF-κB) or KrasL^St-G12Dwt (low NF-κB). […] The relapsed tumors have high Hmcgs2.

[6] = system: LKR13 cells and 3TZ fibroblasts; experiment: Trypan blue quantification of cell death, control cells; format: cell-based, mouse; settings: 24 hours
[7] = system: KrasLSL-G12D/wt;p53flox/flox (KP) lung tumors; experiment: MicroCT lung tumor volume in KP mice; format: in vivo, mouse
Text: FIG. 3: Bortezomib induces acute lung tumor regression in KrasLSL-G12D/wt;p53flox/flox (KP) mice, but not in KrasLSL-G12D/wt (K) mice. (3A and 3C) representative microCT images (n=6) of KP (3A) and K (3C) lung tumors prior to pre-treatment (D0) and 4 days (D4) after a single dose of vehicle control or bortezomib. (3 B and 3D) Quantification of tumor volume change (D4 compared with D0) in control- and bortezomib-treated mice. Each bar represents an individual tumor. P<10^−6 in KP mice (3B); P>0.05 in K mice (3D).
as §1
The Massachusetts Institute of Technology (Cambridge, Mass.) Institutional Animal Care and Use Committee approved all animal studies and procedures. […]
At indicated time points, mice were scanned for 15 min under isoflurane anesthesia, using a small animal eXplore Locus microCT (GE Healthcare) at 45-μm resolution, 80 kV, with 450-mA current (47). […] Mice were imaged for 60 seconds, and signals in the lung were quantified using Xenogen software.
To understand the relevance of these findings in vivo, we examined bortezomib-mediated NF-κB inhibition in both KP and K models of lung cancer. […] Individual lung tumors were monitored using micro-computed tomography (microCT) imaging prior to treatment (D0) and 4 days post treatment (D4). […]

[8] = system: advanced NSCLC patients previously treated with chemotherapy; settings: cited from earlier work

Compound: CC(C)C[C@H](NC(=O)[C@H](Cc1ccccc1)NC(=O)c1cnccn1)B(O)O [bortezomib, N-(2-pyrazine) carbonyl-L-phenylalanine-L-leucine boronic acid]
- CC3 staining after a final dose in pretreated tumors ([1]; KP mice, 3 previous doses of bortezomib, sacrificed 48 hours after final dose): no longer demonstrated significant CC3 staining
- number of apoptotic (CC3) cells ([1]; KP tumors, 48 hours after a single dose): increase in the number of apoptotic cells
- time course of CC3+ cell number ([1]; KP tumors, single dose, time-course): peaked at 24 and 48 hours post treatment and diminished at 96 hours
- survival [2]: no improvement in survival
- viability and colony formation of resistant cells compared with sensitive cells [3]: higher viability and increased colony formation
- effect on CDK inhibitors p21 and p27 [4]: stabilize
- tumor response, apoptosis and survival (FIG. 19) [5]: rapid tumor progression, apoptosis, and increased survival
- cell death by Trypan blue counting [6]: did not show substantial cell death
- tumor response by the 4th dose ([7]; once a week for 4 weeks, 13 weeks): insensitive to treatment
- tumor response after the first dose ([7]; once a week for 4 weeks, twice-weekly microCT, 10.5 weeks): rapid KP tumor regression
- average decrease in tumor volume at D4 compared with D0 ([7]; single dose 1 mg/kg i.v., 10 weeks after Adeno-Cre infection, microCT): 55.4%
- effects in Phase II clinical trials [8]: modest effects
